We go through 23 compounds from US12679807B2 (MERCK SHARP & DOHME LLC, priority 2020, dated 2026).

The structures appear in SMILES notation.

The experiment concerns the target T1, GCS enzyme contained within Golgi preparations isolated from human A375 malignant melanoma skin cells (Homo sapiens, UniProt Q16739).
T1 construct: endogenous levels of GCS enzyme contained within Golgi preparations isolated from human A375 malignant melanoma skin cells; endogenous in cells; host or cells: A375 human malignant melanoma cells (crude Golgi preparation)
T1 sequence (Q16739 1-394): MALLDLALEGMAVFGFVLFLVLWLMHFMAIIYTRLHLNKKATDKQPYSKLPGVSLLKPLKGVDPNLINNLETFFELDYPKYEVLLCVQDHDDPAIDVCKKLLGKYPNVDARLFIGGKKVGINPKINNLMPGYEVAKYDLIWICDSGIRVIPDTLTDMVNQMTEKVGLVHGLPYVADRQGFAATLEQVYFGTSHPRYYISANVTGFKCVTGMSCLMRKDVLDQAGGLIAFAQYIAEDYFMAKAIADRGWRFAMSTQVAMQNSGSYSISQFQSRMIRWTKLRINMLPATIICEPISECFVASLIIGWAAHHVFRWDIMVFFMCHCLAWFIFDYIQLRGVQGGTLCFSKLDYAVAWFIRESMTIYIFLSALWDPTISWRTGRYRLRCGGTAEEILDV
Description: UDP-Glo glucosylceramide synthase biochemical assay. Conditions: crude Golgi preparation from A375 cells; C6 ceramide and UDP-glucose substrates; 20 h incubation at room temperature; UDP detected by luminescence. The essentials: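 Endogenous enzyme in A375 Golgi preparations (1.5 μg total protein) was preincubated 30 min with compound, then reacted 20 h at room temperature with UDP-glucose and ceramide.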
As for `Cc1cc2c(c(-c3ccc(-c4nnc(C)o4)cc3)c1)C(=O)N([C@H](C1CC1)C(C)(C)O)C2` [Compound 61, (R)-2-(1-Cyclopropyl-2-hydroxy-2-methylpropyl)-5-methyl-7-(4-(5-methyl-1,3,4-oxadiazol-2-yl)phenyl)isoindolin-1-one], the EC50 – broadly, the concentration that produces a half-maximal response – stood at 8.9 nM.

For `Cc1cnc(-c2ccc(-c3cccc4c3C(=O)N([C@H](C3CC3)C(C)(C)O)C4)cc2)o1` [Compound 64, (R)-2-(1-Cyclopropyl-2-hydroxy-2-methylpropyl)-7-(4-(5-methyloxazol-2-yl)phenyl)isoindolin-1-one], the EC50 stood at 180 nM.

The compound `Cc1nnc(-c2ccc(-c3cccc4c3C(=O)N([C@H](C3CC3)C(C)(C)O)C4)cn2)o1` [Compound 65, (R)-2-(1-cyclopropyl-2-hydroxy-2-methylpropyl)-7-(6-(5-methyl-1,3,4-oxadiazol-2-yl)pyridin-3-yl)isoindolin-1-one] displayed an EC50 of 150 nM. This EC50 and that of the compound before are within 1.5-fold of each other.

`Cc1nnc(-c2ncc(-c3cccc4c3C(=O)N([C@H](C3CC3)C(C)(C)O)C4)cc2F)o1` [Compound 66, (R)-2-(1-cyclopropyl-2-hydroxy-2-methylpropyl)-7-(5-fluoro-6-(5-methyl-1,3,4-oxadiazol-2-yl)pyridin-3-yl)isoindolin-1-one] registered an EC50 of 500 nM.

Take `COc1cc(-c2cccc3c2C(=O)N([C@H](C2CC2)C(C)(C)O)C3)ccc1-c1nnc(C)o1` [Compound 67, (R)-2-(1-cyclopropyl-2-hydroxy-2-methylpropyl)-7-(3-methoxy-4-(5-methyl-1,3,4-oxadiazol-2-yl)phenyl)isoindolin-1-one]: the response was half-maximal at 12 nM (EC50).

The compound `Cc1nnc(-c2ccc(-c3cccc4c3C(=O)N([C@H](C3CC3)C(C)(C)O)C4)c(F)c2)o1` [Compound 68, (R)-2-(1-cyclopropyl-2-hydroxy-2-methylpropyl)-7-(2-fluoro-4-(5-methyl-1,3,4-oxadiazol-2-yl)phenyl)isoindolin-1-one] came in with an EC50 of 3.5 nM.

Regarding `CC(C)(O)[C@@H](C1CC1)N1Cc2cccc(-c3ccc(-n4ccnn4)cc3)c2C1=O` [Compound 69, (R)-7-(4-(1H-1,2,3-triazol-1-yl)phenyl)-2-(1-cyclopropyl-2-hydroxy-2-methylpropyl)isoindolin-1-one], the EC50 came out at 110 nM.

For `Cc1nnc(-c2cc(F)c(-c3cccc4c3C(=O)N([C@H](C3CC3)C(C)(C)O)C4)cc2C)o1` [Compound 70, (R)-2-(1-cyclopropyl-2-hydroxy-2-methylpropyl)-7-(2-fluoro-5-methyl-4-(5-methyl-1,3,4-oxadiazol-2-yl)phenyl)isoindolin-1-one], the concentration giving a half-maximal response (EC50) came out at 0.81 nM.

The compound `Cc1nnc(-c2ccc(-c3cccc4c3C(=O)N([C@H](C3CC3)C(C)(C)O)C4)cc2C)o1` [Compound 71, (R)-2-(1-cyclopropy1-2-hydroxy-2-methylpropyl)-7-(3-methyl-4-(5-methyl-1,3,4-oxadiazol-2-yl)phenyl)isoindolin-1-one] displayed an EC50 of 0.84 nM.

`Cc1nnc(-c2ccc(-c3cccc4c3C(=O)N([C@H](C3CC3)C(C)(C)O)C4)c(F)c2C)o1` [Compound 72, (R)-2-(1-cyclopropyl-2-hydroxy-2-methylpropyl)-7-(2-fluoro-3-methyl-4-(5-methyl-1,3,4-oxadiazol-2-yl)phenyl)isoindolin-1-one] yielded an EC50 of 0.59 nM.

Turning to `CC(C)(O)[C@@H](C1CC1)N1Cc2cccc(-c3cccnc3OCC(F)(F)F)c2C1=O` [Compound 73, (R)-2-(1-cyclopropyl-2-hydroxy-2-methylpropyl)-7-(2-(2,2,2-trifluoroethoxy)pyridin-3-yl)isoindolin-1-one], the EC50 was determined as 55 nM.

In turn, `CN1Cc2cc(-c3cccc4c3C(=O)N([C@H](C3CC3)C(C)(C)O)C4)ccc2CC1=O` [Compound 74, (R)-7-(2-(1-cyclopropyl-2-hydroxy-2-methylpropyl)-3-oxoisoindolin-4-yl)-2-methyl-1,4-dihydroisoquinolin-3(2H)-one] returned an EC50 of 40 nM.

In the case of `COc1cnc2cc(-c3cccc4c3C(=O)N([C@H](C3CC3)C(C)(C)O)C4)ccc2n1` [Compound 75, (R)-2-(1-cyclopropyl-2-hydroxy-2-methylpropyl)-7-(2-methoxyquinoxalin-6-yl)isoindolin-1-one], the EC50 came to 8.8 nM.

For `CCc1nnc(-c2ccc(-c3cccc4c3C(=O)N([C@H](C3CC3)C(C)(C)O)C4)cc2)o1` [Compound 76, (R)-2-(1-cyclopropyl-2-hydroxy-2-methylpropyl)-7-(4-(5-ethyl-1,3,4-oxadiazol-2-yl)phenyl)isoindolin-1-one], the EC50 is 26 nM.

On to `CC(C)(O)[C@@H](C1CC1)N1Cc2cccc(-c3ccc(-c4ncco4)cc3)c2C1=O` [Compound 77, (R)-2-(1-cyclopropyl-2-hydroxy-2-methylpropyl)-7-(4-(oxazol-2-yl)phenyl)isoindolin-1-one], for which it took 39 nM to reach a half-maximal effect (EC50).

`Cc1noc(-c2ccc(-c3cccc4c3C(=O)N([C@H](C3CC3)C(C)(C)O)C4)cc2)n1` [Compound 78, (R)-2-(1-cyclopropyl-2-hydroxy-2-methylpropyl)-7-(4-(3-methyl-1,2,4-oxadiazol-5-yl)phenyl)isoindolin-1-one] came in with a concentration giving a half-maximal response (EC50) of 59 nM.

For `Cn1nc(-c2cccc3c2C(=O)N([C@H](C2CC2)C(C)(C)O)C3)c2ccccc21` [Compound 79, (R)-2-(1-cyclopropyl-2-hydroxy-2-methylpropyl)-7-(1-methyl-1H-indazol-3-yl)isoindolin-1-one], the EC50 stood at 2.1 nM. Compared with the last compound, the EC50 is about 28-fold lower.

Take `Cn1nc(C(F)(F)F)c2cc(-c3cccc4c3C(=O)N([C@H](C3CC3)C(C)(C)O)C4)ccc21` [Compound 80, (R)-2-(1-cyclopropyl-2-hydroxy-2-methylpropyl)-7-(1-methyl-3-(trifluoromethyl)-1H-indazol-5-yl)isoindolin-1-one]: the EC50 came to 0.39 nM. Compared with the last compound, the EC50 is about 5.4-fold lower.

`Cc1nc(-c2cccc(-c3cccc4c3C(=O)N([C@H](C3CC3)C(C)(C)O)C4)c2)no1` [Compound 81, (R)-2-(1-cyclopropyl-2-hydroxy-2-methylpropyl)-7-(3-(5-methyl-1,2,4-oxadiazol-3-yl)phenyl)isoindolin-1-one] displayed an EC50 of 31 nM. Compared with the last compound, the EC50 is about 79-fold higher.

Compound `CC(C)(O)[C@@H](C1CC1)N1Cc2cccc(-c3cccc(-c4ncon4)c3)c2C1=O` [Compound 82, (R)-7-(3-(1,2,4-oxadiazol-3-yl)phenyl)-2-(1-cyclopropyl-2-hydroxy-2-methylpropyl)isoindolin-1-one] displayed an EC50 of 46 nM.

In turn, `CC(C)(O)[C@@H](C1CC1)N1Cc2cccc(-c3ccc(-c4ncon4)cc3)c2C1=O` [Compound 83, (R)-7-(4-(1,2,4-oxadiazol-3-yl)phenyl)-2-(1-cyclopropyl-2-hydroxy-2-methylpropyl)isoindolin-1-one] returned an EC50 of 100 nM.

Turning to `CN1C(=O)Cc2ccc(-c3cccc4c3C(=O)N([C@H](C3CC3)C(C)(C)O)C4)cc21` [Compound 84, (R)-6-(2-(1-cyclopropyl-2-hydroxy-2-methylpropyl)-3-oxoisoindolin-4-yl)-1-methylindolin-2-one], the EC50 turned out to be 4.8 nM.

On to `CN1C(=O)Cc2cc(-c3cccc4c3C(=O)N([C@H](C3CC3)C(C)(C)O)C4)ccc21` [Compound 85, (R)-5-(2-(1-cyclopropyl-2-hydroxy-2-methylpropyl)-3-oxoisoindolin-4-yl)-1-methylindolin-2-one], for which the EC50 worked out at 8.2 nM. Compared with the last compound, the EC50 is about 1.7-fold higher.
